We go through 2 compounds from patent US20230277582A1, “TREATMENT OF PRIMARY AND/OR SECONDARY LUNG TUMORS USING GASEOUS NITRIC OXIDE INHALATION” (Beyond Air, Inc., priority 2020, published 2023).

Read-outs that look alike come from different tables or passages of the source.

As usually defined, the viability is a read-out of living cells in per cent, often relative to untreated cells.

One data set deals with CT26 colon cancer cells. In words: In vitro NO treatment, cell viability by XTT assay, CT26. Type of data set: cell-based, mouse. The protocol:
(§1) 10,000-20,000 cells from a cancer cell line were plated onto a 96-well plate. After an overnight incubation at 37° C. and 5% CO2, the cell culture medium was removed, and the plate was placed inside an exposure chamber made of acrylic glass, which was closed and sealed with paraffin wax tape. A gas delivery line was inserted from the top of the chamber. NO supplied from 800 ppm NO cylinders, as well as air and oxygen, were delivered to the chamber at a gas flow rate of 1 liter per minute. NO was diluted to the indicated concentration and the final oxygen concentration inside the chamber was adjusted to about 21%, to avoid cell death due to lack of oxygen. Gas exposure lasted for the indicated time period, for one to seven exposure cycles. Gas exchange during this time was permitted via an outlet hole located close to the bottom of the chamber. Cancer cells exposed to air served as a control group. Cell viability was determined using an XTT (2,3-bis-(2-methoxy-4-nitro-5-sulfophenyl)-2H-tetrazolium-5-carboxanilide) assay, whereby conversion of the XTT by viable cells to the corresponding formazan dye was quantified by spectrophotometry.
CT26 colon cancer cells (a mouse colon cancer line) were grown in 100 μl RPMI (Roswell Park Memorial Institute medium)-based tissue culture medium, supplemented with 1% streptomycin-penicillin and 10% fetal bovine serum, and plated 1 day before exposure to NO in 10 ml RPMI-based tissue culture medium; and then exposed to 400 ppm NO for 1 hour, or to 200 ppm NO for one or more cycles of 15 minutes (separated by 30 minutes of rest at 37° C.), using the procedures described hereinabove. Immediately after each exposure, 100 μl of the abovementioned supplemented RPMI-based tissue culture medium was added to each well and plated were stored at 37° C. and 5% CO2.
CT26 colon cancer cells were exposed to 1 μM of the chemotherapeutic agent 5-fluorouracil (5FU), in addition to 200 ppm NO for 30 minutes, using the procedures described hereinabove, except that after overnight incubation at 37° C. and 5% CO2, the 5FU was added to the cell culture medium, and the cells were subjected to a second overnight incubation prior to being placed within the exposure chamber, as described therein.
In another experiment, CT26 cells were exposed to 0.5-50 μM 5FU and 4 cycles of 200 ppm NO for 10 minutes (separated by 30 minutes of rest at 37° C.), using the procedures described hereinabove, except that the 5FU was added immediately after the last exposure to NO (or air), followed by incubation for about 24 hours.
On the technique in general: Tetrazolium dyes change colour on reduction, which living cells bring about.

The subject of another data set is healthy dogs. Briefly: Safety study of intermittent NO inhalation in healthy dogs. It is filed as in vivo, dog. The note with it: 250-400 ppm NO, 30 days. On the procedure:
(§2) The effect of intermittent inhalation of NO at a concentration of 250-400 ppm was tested for 30 days in healthy dogs and for 12 days in healthy rats.

A further data set concerns healthy rats. In words: Safety study of intermittent NO inhalation in healthy rats. The note with it: 250-400 ppm NO, 12 days. Type of data set: in vivo, rat. The protocol: as §2
The next data set relates to LLC1 lung cancer cells. Briefly: In vitro NO treatment, cell viability by XTT assay, LLC1. It is filed as cell-based. The settings on record: Mus musculus, read-out: LLC1 cells not viable. The protocol: as §1
Furthermore, LLC1 lung cancer cells (a mouse lung cancer line) were exposed to 200 ppm NO for 15 or 30 minutes, using the procedures described hereinabove.

In the next data set the test system is S. aureus. The note with it: 200 ppm gNO; cited from earlier work.
The subject of data set [1] is human fibroblast, keratinocyte, endothelial, monocyte and macrophage cells. The settings on record: 200 ppm gNO; cited from earlier work.

Consider `O=c1[nH]cc(F)c(=O)[nH]1` [5FU, 5-fluorouracil], for which, in the data set with CT26 colon cancer cells (1 μM 5FU alone, overnight incubation (FIG. 4)), the “effect on CT26 cells (viability)” value is “little effect”.
As for `[N]=O` [NO, nitric oxide], the “macroscopic or microscopic effect of NO inhalation” value with healthy dogs and in the data set with healthy rats was “No macroscopic or microscopic effect” in each case. Moreover, the CT26 cell viability entry is reported as “not viable” in the data set on CT26 colon cancer cells (400 ppm NO for 1 hour (FIG. 1)); “did not produce an additional reduction in viability” in the data set with CT26 colon cancer cells (seven cycles of 15 minutes, 200 ppm NO, compared to four cycles (FIG. 2C)); “little effect” in the data set with CT26 colon cancer cells (single 15 minute exposure to 200 ppm NO (FIG. 2A)). Further, the cytotoxicity at 200 ppm was 51% in the data set on CT26 colon cancer cells (Mus musculus, CT26, 0.5 h, read-out: reduction of CT26 cell viability); 41% with LLC1 lung cancer cells (LLC1, 0.25 h, 200 ppm NO for 15 minutes (FIG. 3)); 65% in the data set with LLC1 lung cancer cells (LLC1, 0.5 h, 200 ppm NO for 30 minutes (FIG. 3)). In the data set with CT26 colon cancer cells (Mus musculus, CT26, read-out: CT26 cell viability (decreased to)), the viability at 200 ppm is roughly 40%. Also, the “S. aureus burden in rabbit wound model” value with S. aureus was “reduced S. aureus burden”. Also, the “cytotoxicity to human cells in culture” value in data set [1] was “without being cytotoxic”.
